The subject of series [1] is PI-IBS rats. Kind of series: Colonic tissue 5-HT content (capillary electrophoresis, laser-induced fluorescence). It is filed as in vivo, rat. The following applies: for 5-HT content: PI-IBS rats, colon. The protocol:
Six groups of 5 rats are tested. The groups setting and treatments are as described in Example 1. Different from Example 1, AWR test are not applied to the rats in this experiment in order to obtain the basal data without CRD stimulus. After the last drug administration, a 6 cm proximal colon (1-2 cm from caecum) is collected and divided into 3 parts, the proximal is fixed in 4% paraformaldehyde and embedded in paraffin for EC cell staining; the middle part is collected for 5-HT content measurement and electron microscopic evaluation, and the distal part is for western blotting analysis.
5-HT content in the colon tissue is assayed based on our previously reported procedure in Qi S D, Tian S L, Xu H X, Sung J J, Bian Z X. Quantification of luminally released serotonin in rat proximal colon by capillary electrophoresis with laser-induced fluorescence detection. Anal Bioanal Chem. 2009 April; 393(8):2059-66. Briefly, the colon segment is homogenized in 15% iced trichloroacetic acid; for 2 min and stored at 4° C. for 2 h. After centrifuge at 10,000 G for 15 min, the supernatant of each sample is filtered using 0.22 μm filters and extracted with diethyl ether for five times to remove the trichloroacetic acid. The prepared samples are added to derivatization solution (150 mM sodium tetraborate, 25% acetonitrile, 2 mM CFSE) and incubated for […] in dark at room temperature. The 5-HT content is analyzed by capillary electrophoresis with laser-induced fluorescence detection and expressed as nanogram per milligram (wet weight of tissue).

The subject of series [2] is QGP-1 cells. Kind of series: Cell cycle analysis by flow cytometry (propidium iodide). The following applies: 24 h. It is filed as cell-based, human. The protocol: QGP-1 cells are seeded at a density of 10×10^4 cells/ml and pre-incubated overnight. After incubation with or without Quercetin (0-100 μM) for 24 h, cells are harvested by trypsinization and fixed in 70% ethanol at 4° C. overnight. The cells are centrifuged to remove ethanol and washed twice using ice-cold PBS. The cell pallets are resuspended in 500 n1 propidium iodide solution (0.1% Triton X-100, 50 μg/ml propidium iodide in PBS) containing 50 μg/ml RNase and incubated at 37° C. for 30 min and protected from the light. The DNA content of 10,000 cells is detected by BD FASCanto Flow Cytometry and analyzed using […] software (Becton Dickinson, Heidelberg, Germany). The data are representative of those obtained in at least three experiments.

Series [3] has as its system normal rats. Briefly: Pain threshold pressure in normal rats. It is filed as in vivo, rat. Particulars: 10 mg/kg i.g., 14 days. How it is done: AWR test is performed as previously described in Al-Chaer E D, Kawasaki M, Pasricha P J. A new model of chronic visceral hypersensitivity in adult rats induced by colon irritation during postnatal development. Gastroenterology. 2000 November; 119(5):1276-85. Briefly, rats are lightly anesthetized with ether; a latex balloon is inserted into the descending colon. Rats are then allowed to recover for about 1 h. The tube of the balloon is connected via a Y-connector to a sphygmomanometer and colorectal distension is applied in increments of 5 mmHg until a visible contraction of the abdominal wall is observed by an investigator blinded to the treatment. […] The pain threshold pressure of all groups is recorded and repeated five times with intervals of at least 5 minutes for recovery. […] The changes of area under the curve (AUC) are calculated using that during 20 s distension period over the 20 s baseline.
To identify whether the effects of Quercerin in PI-IBS rats are specific, pain threshold pressure, colonic EC cell number and 5-HT content are further evaluated in normal rats treated with Quercetin. […] After the final drug administration, pain threshold pressure, colonic EC cell density and 5-HT content are evaluated and the methods used here are as same as that shown in above experiments.

For series [4], the system named is QGP-1 cells. Kind of series: Cytotoxicity by lactate dehydrogenase (LDH) release. It is filed as cell-based, human. The following applies: QGP-1, 25-100 μM, 24 h. How it is done: The cytotoxicity of Quercetin is determined by lactate dehydrogenase (LDH) assay in QGP-1 cells. Cells are seeded at a density of 5,000 cells/well into 96-well plates and incubated with Quercetin (0-100 μM, 0.01% DMSO) for 24 h. Release of cytoplasmic enzyme lactate dehydrogenase is measured after incubation by using colorimetric assay kit (Roche Molecular Biochemicals, Germany) according to the manufacturer's instructions.

With `O=c1c(O)c(-c2ccc(O)c(O)c2)oc2cc(O)cc(O)c12` [Quercetin, 2-(3,4-dihydroxyphenyl)-3,5,7-trihydroxy-4H-chromen-4-one], the 5-HT content in series [1] (5 mg/kg i.g.) is on record as 5.15 ± 0.58 ng/mg; in series [1] (10 mg/kg i.g.), 4.63 ± 0.92 ng/mg; in series [1] (20 mg/kg i.g.) it was 5.50 ± 0.65^ ng/mg. Also, the results for the “Decrease of 5-HT content compared with the PI-IBS group” value in series [1] (low dose (5 mg/kg)) and in series [1] (median dose (10 mg/kg)) were 28% and 35%, respectively. The “Cells in G0/G1 phase” value in series [2] (QGP-1, 25 μM) is 56.0 ± 3.5%; in series [2] (QGP-1, 50 μM) it was 47.8 ± 4.0 %; in series [2] (QGP-1, 100 μM), 8.4 ± 1.7 %. The “Cells in G2/M phase” value in series [2] (QGP-1, 25 μM) was 21.8 ± 3.2%; in series [2] (QGP-1, 50 μM) it was 20.2 ± 4.29%; in series [2] (QGP-1, 100 μM) it was 47.7 ± 2.2 %. In addition, the “Cells in S phase” value in series [2] (QGP-1, 25 μM) was 22.3 ± 0.3%; in series [2] (QGP-1, 50 μM), 32.0 ± 0.4 %; in series [2] (QGP-1, 100 μM), 43.9 ± 0.7 %. In series [3], this compound had a Pain threshold pressure of 37.9 ± 1.7 mmHg. The LDH release entry in series [4] was “significant and dose-dependent increase”.
